In patent US7585893B2, “Anti-cancer composition comprising DMXAA or related compound” (Cancer Research Technology Limited, priority 2002, dated 2009):
Several values for one entry are separate records, joined by “and”; a condition that tells them apart may be missing. Identical values can stand only once. Like-named read-outs stand apart in the source and are kept apart here.

Experiments:
Colon 38 tumour = Colon 38 tumour growth delay, oral DMXAA (Experiments I and II); type: in vivo, C57B1/6 mice; details: for mice cured completely: 30+15+15 mg/kg orally at 0, 4, 8 h
Method: C57B1/6 mice from the Animal Resource Unit, University of Auckland, were bred and housed under conditions of constant temperature and humidity, with sterile bedding and food, according to institutional ethical guidelines. All mice were aged between 8 and 12 weeks.
DMXAA was synthesized as the sodium salt (Rewcastle et al (1990) Journal of National Cancer Institute 82:528-529). DMXAA sodium salt was dissolved in sterile water and was administered orally by gavage.
Colon 38 tumour fragments (˜1 mm^3) were implanted subcutaneously (s.c.) in the left flank of anaesthetized (sodium pentobarbital, 81 mg/kg) mice. The experiments were initiated when tumours were approximately 3-4 mm (approximately 20 mg mass) in diameter. Tumour-bearing mice were treated with drugs according to the administration schedule described before, and the tumours measured using calipers, three times weekly thereafter. Tumour volumes were calculated as O.52a^2b, where a and b are the minor and major axes of the tumour, respectively. For graphical representation the arithmetic means were calculated for each time point, counting cured tumours as zero volume.
Two groups of 5 mice were implanted with tumours. The treatment group received DMXAA according to the schedule shown, the control group received no DMXAA. The individual mice in each group were not marked, and so any one line of the spreadsheet data shown in Table 1 could be from any individual mouse of a particular group.
The data were normalised, to enable plotting of the average tumour growth beginning from a relative size of 1 (see FIG. 1).
This example was performed using four groups of mice. Group 1 (control, n=5) received no treatment. Group 2 (n=5) received two 15 mg/kg doses of DMXAA. Group 3 (n=5) received a single 30 mg/kg dose of DMXAA. Group 4 (n=6) received three doses of DMXAA in concentrations of 30+15+15 mg/kg. In this experiment tumours were all 14 mm^3 at the start of the experiment. Data were normalised by division by 14 to give size relative to initial size.
The tumour growth delay experiment was conducted using 2 drug regimes: untreated controls (n=5) and oral DMXAA (n=5) administered in 3 doses. The first dose (30 mg/kg), was administered at t=0 hours followed by two lower doses each of 15 mg/kg at t=4 hours and t=8 hours respectively. Tumour size was measured thrice weekly and the results normalised as described above. The results are shown in Table 1 (raw data), Table 2 (normalised data) and FIG. 1, Expt. I (plotted as a graph).
In this example, the tumour growth delay experiment was conducted using 4 drug regimes: untreated controls (Group 1, n=5); two 15 mg/kg doses of DMXAA separated by a 4 hour interval (Group 2, n=5); a single 30 mg/kg dose of DMXAA (Group 3, n=5); three doses of DMXAA in concentrations of 30+15+15 mg/kg administered at t=0, 4 and 8 hours respectively (Group 4, n=6). The 30 mg/kg dose is the maximum tolerated single dose Zhao et al (Cancer Chemother Pharmacol. 2002 January; 49(1):20-6). Tumour size was measured thrice weekly and the results normalised as described above. The results are shown in Table 3 (raw data), Table 4 (normalised data) and FIG. 1, Expt. II (plotted as a graph).

[1] = test system: HT29 human colon cancer cells; assay: HT29 human colon carcinoma xenograft, oral dosing (Experiment 3); type: in vivo; details: HT29 xenograft in nude mice; 28 mg/kg oral, or 28 + 15 + 15 mg/kg at 0, 4, 8 h
Method: Nude mice were implanted with 5×10^6 HT29 human colon cancer cells, subcutaneously. […] Tumours were then measured using callipers every 2-3 days and volumes calculated. Comparative tumour growth curves are plotted with respect to those at the onset of treatment (relative tumour volume).

tumour = details: Zhao et al, cited from earlier work
[2] = oral; Zhao et al; cited from earlier work
tumour blood flow = details: Phase I clinical trials; well-tolerated doses; cited from earlier work

Cc1ccc2c(=O)c3cccc(CC(=O)O)c3oc2c1C [DMXAA, 5,6-dimethylxanthenone-4-acetic acid]
side effects of multiple dose strategy (Colon 38 tumour; 30+15+15 mg/kg orally): without the serious side effects
mice cured completely (Colon 38 tumour; Expt I, within 24 days): 4/5
Tumor volume (Colon 38 tumour; Expt I, 30+15+15 mg/kg orally at 4 h intervals, 0 day, individual mice, 15 mg/kg): 6.3 mm^3 and 18.8 mm^3 (2×) and 14.1 mm^3 (2×)
Tumor volume (Colon 38 tumour; Expt II, 30 mg/kg orally single dose, 0 day): 14.0 mm^3
tumour growth over time-course (Colon 38 tumour; Expt II, 2×15 mg/kg oral doses, 4 h interval): tumours continued to grow
Tumor volume (Colon 38 tumour; Expt II, 15 − 15 mg/kg orally, 4 h interval, 0 day): 14.0 mm^3
mice cured completely (Colon 38 tumour; Expt II, within 17 days): 6/6
Tumor volume (Colon 38 tumour; Expt II, 30 − 16 − 15 mg/kg orally, 0 day): 14.0 mm^3
Tumor volume (Colon 38 tumour; Expt II, 30 − 16 − 15 mg/kg orally, 17 day): 0.0 mm^3
Normalised tumour size (relative to initial size) (Colon 38 tumour; Expt II, oral 30 mg/kg single dose, day 0): 1
Normalised tumour size (relative to initial size) (Colon 38 tumour; Expt II, oral 15 − 15 mg/kg, day 0): 1
Normalised tumour size (relative to initial size) (Colon 38 tumour; Expt II, oral 30 − 15 − 15 mg/kg, day 0): 1
Normalised tumour size (relative to initial size) (Colon 38 tumour; Expt II, oral 30 − 15 − 15 mg/kg, day 17): 0
tumour growth over time-course (Colon 38 tumour; Expt II, single 30 mg/kg oral dose): tumours continued to grow
antitumour activity by the oral route [1]: induces antitumour activity
cures (tumour; intraperitoneal administration): 40%
cures (tumour; single dose orally administered): no cures
maximum tolerated single dose [2]: 30 mg/kg
tumour blood flow (dynamic MRI) (tumour blood flow): significant reduction in tumour blood flow
